Reference: US8772499B2, “TRPV3 modulators” (AbbVie Inc., priority 2011, dated 2014)
Read-outs that look alike come from different tables or passages of the source.

Key:
[1] = In vitro rat microsomal stability assay; format: in vitro ADME, rat (Sprague-Dawley); conditions: Sprague-Dawley, rat, microsomes, 0.5 h, 0.5 μM, pH 7.4
Outline: (§1)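 Incubations ran at 37° C. in microsomal preparations of rat (Sprague-Dawley) or human liver, with NADPH present, including at time zero.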

human TRPV3 = molecular target: T1, human TRPV3 (Homo sapiens, UniProt Q8NET8); assay: In vitro antagonism of recombinant human TRPV3 activation (FLIPR Tetra calcium assay); format: cell-based; conditions: HEK293 cells stably expressing human TRPV3, agonist 2-APB at 80 μM
T1 construct: expressed in transfected cells
T1 sequence (Q8NET8 1-790): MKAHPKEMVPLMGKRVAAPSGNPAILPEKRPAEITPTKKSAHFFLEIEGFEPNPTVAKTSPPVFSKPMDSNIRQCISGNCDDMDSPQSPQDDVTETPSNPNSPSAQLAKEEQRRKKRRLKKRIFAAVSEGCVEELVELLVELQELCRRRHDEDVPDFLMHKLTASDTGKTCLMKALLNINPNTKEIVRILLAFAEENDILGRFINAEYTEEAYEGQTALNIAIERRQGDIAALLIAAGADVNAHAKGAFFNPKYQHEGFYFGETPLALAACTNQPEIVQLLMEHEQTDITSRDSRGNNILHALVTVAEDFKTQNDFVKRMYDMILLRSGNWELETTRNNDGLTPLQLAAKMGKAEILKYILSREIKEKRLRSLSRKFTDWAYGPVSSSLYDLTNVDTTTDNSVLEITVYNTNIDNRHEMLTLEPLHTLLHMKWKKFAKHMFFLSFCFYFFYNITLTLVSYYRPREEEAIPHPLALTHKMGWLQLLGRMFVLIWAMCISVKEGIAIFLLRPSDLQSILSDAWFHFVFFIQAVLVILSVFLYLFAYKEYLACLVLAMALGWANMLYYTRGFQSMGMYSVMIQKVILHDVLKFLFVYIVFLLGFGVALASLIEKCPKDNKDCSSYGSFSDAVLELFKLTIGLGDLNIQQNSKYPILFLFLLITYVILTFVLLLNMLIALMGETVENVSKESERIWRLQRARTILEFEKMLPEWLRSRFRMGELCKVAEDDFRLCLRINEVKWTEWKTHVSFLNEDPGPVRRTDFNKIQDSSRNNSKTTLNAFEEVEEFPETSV
Outline: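 Calcium flux read over a 10 min run: compound added at 10 s to Calcium-4-loaded human TRPV3-HEK293 cells, agonist 2-APB (80 μM, its EC80) after 3 min. IC50 derived from peak-minus-baseline signal as percentage of uninhibited 2-APB response, typically averaged over at least two runs.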

[2] = In vitro human microsomal stability assay; format: in vitro ADME; conditions: human, microsomes, 0.5 h, 0.5 μM, pH 7.4
Outline: as §1

[3] = actual measured value shown parenthetically, in most cases average of at least two runs, read-out: IC50

Cc1ccccc1CC1(C(O)c2ccccn2)CCC1 (stereo not shown) [Example 253, [1-(2-methylbenzyl)cyclobutyl](pyridin-2-yl)methanol]
RAT MICROSOMAL STABILITY (% REMAINING AFTER 30 MINUTES) [1]: 0.017% | IC50 (human TRPV3; [3]): 3.4 µM | HUMAN MICROSOMAL STABILITY (% REMAINING AFTER 30 MINUTES) [2]: 0.21%

OC(c1ccccn1)C1(Cc2cccc(F)c2)CCC1 (stereo not shown) [Example 254, [1-(3-fluorobenzyl)cyclobutyl](pyridin-2-yl)methanol]
RAT MICROSOMAL STABILITY (% REMAINING AFTER 30 MINUTES) [1]: 0.57% | IC50 (human TRPV3; [3]): 4.22 µM | HUMAN MICROSOMAL STABILITY (% REMAINING AFTER 30 MINUTES) [2]: 1.1%

OC(c1ccccn1)C1(c2ccc(F)c(Cl)c2)CC2(C1)OCCO2 (stereo not shown) [Example 255, [2-(3-chloro-4-fluorophenyl)-5,8-dioxaspiro[3.4]oct-2-yl](pyridin-2-yl)-methanol]
RAT MICROSOMAL STABILITY (% REMAINING AFTER 30 MINUTES) [1]: <0.01% | IC50 (human TRPV3; [3]): 5.49 µM | HUMAN MICROSOMAL STABILITY (% REMAINING AFTER 30 MINUTES) [2]: 54%

O=C1CC(c2ccc(F)c(Cl)c2)(C(O)c2ccccn2)C1 (stereo not shown) [Example 258, 3-(3-chloro-4-fluorophenyl)-3-[hydroxy(pyridin-2-yl)methyl]cyclobutanone]
RAT MICROSOMAL STABILITY (% REMAINING AFTER 30 MINUTES) [1]: 53% | IC50 (human TRPV3; [3]): 11 µM | HUMAN MICROSOMAL STABILITY (% REMAINING AFTER 30 MINUTES) [2]: 70%

O[C@H](c1ccccn1)[C@]1(c2cccc(C(F)(F)F)c2)C[C@H](O)C1 [Example 259, cis-3-[(S)-hydroxy(pyridin-2-yl)methyl]-3-[3-(trifluoromethyl)phenyl]-cyclobutanol]
RAT MICROSOMAL STABILITY (% REMAINING AFTER 30 MINUTES) [1]: 73% | IC50 (human TRPV3; [3]): 0.47 µM | HUMAN MICROSOMAL STABILITY (% REMAINING AFTER 30 MINUTES) [2]: 76%

OC(c1ccccn1)C1(C2=CCC(F)(F)CC2)CCC1 (stereo not shown) [Example 260, [1-(4,4-difluorocyclohex-1-en-1-yl)cyclobutyl](pyridin-2-yl)methanol]
RAT MICROSOMAL STABILITY (% REMAINING AFTER 30 MINUTES) [1]: <0.01% | IC50 (human TRPV3; [3]): 5.32 µM | HUMAN MICROSOMAL STABILITY (% REMAINING AFTER 30 MINUTES) [2]: 12%

OC(c1ccccn1)C1(C2=CCCC(C(F)(F)F)C2)CCC1 (stereo not shown) [Example 261, pyridin-2-yl{1-[5-(trifluoromethyl)cyclohex-1-en-1-yl]cyclobutyl}methanol]
RAT MICROSOMAL STABILITY (% REMAINING AFTER 30 MINUTES) [1]: <0.01% | IC50 (human TRPV3; [3]): 1.27 µM | HUMAN MICROSOMAL STABILITY (% REMAINING AFTER 30 MINUTES) [2]: 0.01%

O[C@H](c1ccccn1)[C@]1(c2cccc(C(F)(F)F)c2)C[C@@H](O)C1 [Example 264, trans-3-[(S)-hydroxy(pyridin-2-yl)methyl]-3-[3-(trifluoromethyl)phenyl]-cyclobutanol]
RAT MICROSOMAL STABILITY (% REMAINING AFTER 30 MINUTES) [1]: 59% | IC50 (human TRPV3; [3]): 0.23 µM | HUMAN MICROSOMAL STABILITY (% REMAINING AFTER 30 MINUTES) [2]: 56%

CC(C)(C)OC(=O)N1CCC(C2(C(O)c3ccccn3)CCC2)C1 (stereo not shown) [Example 265, tert-butyl 3-{1-[hydroxy(pyridin-2-yl)methyl]cyclobutyl}pyrrolidine-1-carboxylate]
RAT MICROSOMAL STABILITY (% REMAINING AFTER 30 MINUTES) [1]: 0.059% | IC50 (human TRPV3; [3]): 5.64 µM | HUMAN MICROSOMAL STABILITY (% REMAINING AFTER 30 MINUTES) [2]: 43%

OC(c1ccccn1)C1(c2nc3ccccc3s2)CCC1 (stereo not shown) [Example 266, [1-(1,3-benzothiazol-2-yl)cyclobutyl](pyridin-2-yl)methanol]
RAT MICROSOMAL STABILITY (% REMAINING AFTER 30 MINUTES) [1]: 0.14% | IC50 (human TRPV3; [3]): 2.31 µM | HUMAN MICROSOMAL STABILITY (% REMAINING AFTER 30 MINUTES) [2]: 46%

CN(C)N=C1CC(c2ccc(OC(F)(F)F)cc2)([C@H](O)c2ccccn2)C1 (stereo partly drawn) [Example 267, (S)-{3-(dimethylhydrazinylidene)-1-[4-(trifluoromethoxy)phenyl]-cyclobutyl}(pyridin-2-yl)methanol]
RAT MICROSOMAL STABILITY (% REMAINING AFTER 30 MINUTES) [1]: 10% | IC50 (human TRPV3; [3]): 2.41 µM | HUMAN MICROSOMAL STABILITY (% REMAINING AFTER 30 MINUTES) [2]: 64%

OC(c1ccccn1)C1(c2nc3ccccc3o2)CCC1 (stereo not shown) [Example 271, [1-(1,3-benzoxazol-2-yl)cyclobutyl](pyridin-2-yl)methanol]
RAT MICROSOMAL STABILITY (% REMAINING AFTER 30 MINUTES) [1]: 8.6% | IC50 (human TRPV3; [3]): 2.19 µM | HUMAN MICROSOMAL STABILITY (% REMAINING AFTER 30 MINUTES) [2]: 62%

OC(c1ccccn1)C1(C2CCC(F)(F)CC2)CCC1 (stereo not shown) [Example 274, [1-(4,4-difluorocyclohexyl)cyclobutyl](pyridin-2-yl)methanol]
RAT MICROSOMAL STABILITY (% REMAINING AFTER 30 MINUTES) [1]: 10% | IC50 (human TRPV3; [3]): 3.11 µM | HUMAN MICROSOMAL STABILITY (% REMAINING AFTER 30 MINUTES) [2]: 55%

Cn1c(C2(C(O)c3ccccn3)CCC2)nc2ccccc21 (stereo not shown) [Example 275, [1-(1-methyl-1H-benzimidazol-2-yl)cyclobutyl](pyridin-2-yl)methanol]
RAT MICROSOMAL STABILITY (% REMAINING AFTER 30 MINUTES) [1]: 5.7% | IC50 (human TRPV3; [3]): 19 µM | HUMAN MICROSOMAL STABILITY (% REMAINING AFTER 30 MINUTES) [2]: 67%

OC1CC(c2ccc(F)c(Cl)c2)([C@H](O)c2ccccn2)C1 (stereo partly drawn) [Example 276, 3-(3-chloro-4-fluorophenyl)-3-[(S)-hydroxy(pyridin-2-yl)methyl]-cyclobutanol]
RAT MICROSOMAL STABILITY (% REMAINING AFTER 30 MINUTES) [1]: 73% | IC50 (human TRPV3; [3]): 0.2 µM | HUMAN MICROSOMAL STABILITY (% REMAINING AFTER 30 MINUTES) [2]: 72%

O=C1CC(c2cc(C(F)(F)F)ccn2)([C@H](O)c2ccccn2)C1 [Example 277, 3-[(S)-hydroxy(pyridin-2-yl)methyl]-3-[4-(trifluoromethyl)pyridin-2-yl]-cyclobutanone]
RAT MICROSOMAL STABILITY (% REMAINING AFTER 30 MINUTES) [1]: >85% | IC50 (human TRPV3; [3]): 1.97 µM | HUMAN MICROSOMAL STABILITY (% REMAINING AFTER 30 MINUTES) [2]: >85%

O=C1CC(c2cc(C(F)(F)F)ccn2)([C@@H](O)c2ccccn2)C1 [Example 278, 3-[(R)-hydroxy(pyridin-2-yl)methyl]-3-[4-(trifluoromethyl)pyridin-2-yl]-cyclobutanone]
RAT MICROSOMAL STABILITY (% REMAINING AFTER 30 MINUTES) [1]: >85% | IC50 (human TRPV3; [3]): 6.6 µM | HUMAN MICROSOMAL STABILITY (% REMAINING AFTER 30 MINUTES) [2]: 83%

CC(C)(C)OC(=O)N1CCC(C2(C(O)c3ccccn3)CCC2)CC1 (stereo not shown) [Example 279, tert-butyl 4-{1-[hydroxy(pyridin-2-yl)methyl]cyclobutyl}piperidine-1-carboxylate]
RAT MICROSOMAL STABILITY (% REMAINING AFTER 30 MINUTES) [1]: <0.01% | IC50 (human TRPV3; [3]): 7.5 µM | HUMAN MICROSOMAL STABILITY (% REMAINING AFTER 30 MINUTES) [2]: 22%

OC(c1ccccn1)C1(C2CCC(C(F)(F)F)CC2)CCC1 (stereo not shown) [Example 280, pyridin-2-yl{1-[4-(trifluoromethyl)cyclohexyl]cyclobutyl}methanol]
RAT MICROSOMAL STABILITY (% REMAINING AFTER 30 MINUTES) [1]: <0.01% | IC50 (human TRPV3; [3]): 1.95 µM | HUMAN MICROSOMAL STABILITY (% REMAINING AFTER 30 MINUTES) [2]: 9.0%

OC(c1ccccn1)C1(C2CCCOC2)CCC1 (stereo not shown) [Example 281, pyridin-2-yl[1-(tetrahydro-2H-pyran-3-yl)cyclobutyl]methanol]
RAT MICROSOMAL STABILITY (% REMAINING AFTER 30 MINUTES) [1]: 0.054% | IC50 (human TRPV3; [3]): 7.69 µM | HUMAN MICROSOMAL STABILITY (% REMAINING AFTER 30 MINUTES) [2]: >85%

OC1CC(c2cc(C(F)(F)F)ccn2)(C(O)c2ccccn2)C1 [Example 282, cis-3-[(S)-hydroxy(pyridin-2-yl)methyl]-3-[4-(trifluoromethyl)pyridin-2-yl]cyclobutanol]
RAT MICROSOMAL STABILITY (% REMAINING AFTER 30 MINUTES) [1]: >85% | IC50 (human TRPV3; [3]): 0.74 µM | HUMAN MICROSOMAL STABILITY (% REMAINING AFTER 30 MINUTES) [2]: >85%

OC(c1ccccn1)C1(C2CCOC2)CCC1 (stereo not shown) [Example 284, pyridin-2-yl[1-(tetrahydrofuran-3-yl)cyclobutyl]methanol]
RAT MICROSOMAL STABILITY (% REMAINING AFTER 30 MINUTES) [1]: 16% | IC50 (human TRPV3; [3]): > 20 µM | IC50 (human TRPV3; reported range, read-out: IC50 (range class)): > 20 µM | HUMAN MICROSOMAL STABILITY (% REMAINING AFTER 30 MINUTES) [2]: >85%

CC1(O)CC(c2cc(C(F)(F)F)ccn2)(C(O)c2ccccn2)C1 (stereo not shown) [Example 286]
RAT MICROSOMAL STABILITY (% REMAINING AFTER 30 MINUTES) [1]: 70% | IC50 (human TRPV3; [3]): 1.47 µM | HUMAN MICROSOMAL STABILITY (% REMAINING AFTER 30 MINUTES) [2]: >85%
